Test results from patent publication US4555572A, “Pyrazolo[3,4,5-kl]acridine compositions and methods for their production and use” (Warner-Lambert Company, priority 1984, dated 1985).
Converted amounts (≈) assume the structure as drawn. Structures can show the parent of a compound that is named as a salt. Where two headings read alike, the source gives them in different places.

How the values were obtained:
L1210 cells = assay: PDC test, L1210 cell growth; type: cell-based, murine; conditions: Mus musculus, read-out: PDC ID50
Protocol: (c) Another test protocol is the PDC test. L1210 cells, a murine leukemia cell line, were grown in RPMI 1640 supplemented with 10% fetal bovine serum and genamicin (50 μg/ml). Drug dilutions were prepared in the appropriate solvent and 20 μl of each dilution were added to 24-well Linbro tissue culture plates followed by the addition of 2.0 ml of cell suspension containing 3×10^4 cells per ml. Solvent and medium controls were included in each test. After incubation at 37° C. for three days in 5% CO2 in air, the contents of each well were removed and the cells counted in a ZBI Coulter counter. Per cent growth was calculated relative to the controls and the levels of drug activity were expressed as ID50 in terms of molarity (M).

Alcaligenes viscolactis = assay: in vitro antibacterial (ABMF) microdilution susceptibility test; type: cell-based; conditions: read-out: ABMF Test M.I.C. A. visc.
Text: (§1) (d) Still another test protocol is the in vitro antibacterial (ABMF) test which is a recognized standard microdilution susceptibility procedure in Mueller-Hinton broth against gram-positive and gram-negative bacterial test organisms. The procedure is a modification of a state-of-the-art procedure reported in Manual of Clinical Microbiology, Lennette, E. H., ed., by Barry, A. L. and C. Thornsberry at pages 463-474 and by Gavan, T. L. and A. L. Barry at pages 459-462, American Society for Microbiology, Washington, 1980.
(§2) In the test, a given bacterial culture is used to inoculate individaul test wells of microdilution trays containing growth medium and test compound, the latter in a microdilution series: 1000, 333, 111, 37, 12, 4, 1.4, and 0.46 micrograms per milliliter. […] For convenience, values are reported for Escherichia coli, Branhamella catarrhalis, Alcaligenes viscolactis, Streptococcus pneumoniae, and Bacillus cereus

Bacillus cereus = assay: as above; type: cell-based; conditions: read-out: ABMF Test M.I.C. B. cere.
Text: as §1, §2

Branhamella catarrhalis = assay: as above; type: cell-based; conditions: Moraxella catarrhalis, read-out: ABMF Test M.I.C. B. cata.
Text: as §1, §2

Escherichia coli = assay: as above; type: cell-based; conditions: read-out: ABMF Test M.I.C. E. coli
Text: as §1, §2

Streptococcus pneumoniae = assay: as above; type: cell-based; conditions: read-out: ABMF Test M.I.C. S. pneu.
Text: as §1, §2

[1] = system: lymphocytic leukemia P388; assay: in vivo lymphocytic leukemia P388 test; design: species or system CD2 F1 mice; conditions: Mus musculus, P388, ip, 120 h, intraperitoneally once daily for five days, read-out: P388 in vivo T/C × 100
Protocol: Another test protocol is the in vivo lymphocytic leukemia P388 test. The animals used are either male or female CD2 F1 mice, six or seven animals per test group. The tumor transplant is by intraperitoneal injection of dilute ascitic fluid containing cells of lymphocytic leukemia P388. The test compounds are administered intraperitoneally once daily for five consecutive days at various doses following tumor inoculation. The animals are weighed and survivors are recorded on a regular basis for 30 days. A compound is designated "toxic" if, at a given dose, all animals died prior to four days after the first injection of drug. A ratio of survival time for treated (T)/control (C) animals is calculated. A criterion for efficacy is a ratio T/C times 100 greater than or equal to 125. See Cancer Chemotherapy Reports, Part 3, 3, 1 (1972) for a comprehensive discussion of the protocol.

[2] = Mueller-Hinton broth, 37° C., 16-24 hours

| Compound | IC50 (L1210 cells; 72 h, L1210 cells, three days) | MIC (Alcaligenes viscolactis; [2]) | MIC (Bacillus cereus; [2]) | MIC (Branhamella catarrhalis; [2]) | MIC (Escherichia coli; [2]) | MIC (Streptococcus pneumoniae; [2]) | also measured |
| --- | --- | --- | --- | --- | --- | --- | --- |
| CCN(CC)CCn1nc2c3c(c([N+](=O)[O-])ccc31)Nc1cc(OC)cc(OC)c1-2.CS(=O)(=O)O.O [Example 24, N,N-Diethyl-8,10-dimethoxy-5-nitropyrazolo[3,4,5-kl]acridine-2(6H)-ethanamine, methanesulfonate, hydrate (1:1:1)] | 490 nM | < 0.46 µg/mL | < 0.46 µg/mL | < 0.46 µg/mL | 4.1 µg/mL | 1.4 µg/mL |  |
| CCCCCCCC(=O)Oc1ccc2c(c1)-c1nn(CCN(CC)CC)c3ccc([N+](=O)[O-])c(c13)N2 [Example 30, Octanoic acid,[2-[2-(diethylamino)ethyl]-2,6-dihydro-5-nitropyrazolo[3,4,5-kl]acridin-9-yl]ester, methanesulfonate (1:1), hemihydrate] | 4.3 nM | < 0.46 µg/mL | 37 µg/mL | 12.3 µg/mL | 37 µg/mL | < 0.46 µg/mL |  |
| CCN(CC)CCn1nc2c3c(c([N+](=O)[O-])cc([N+](=O)[O-])c31)Nc1ccc(OCc3ccc(OC)cc3)cc1-2.CS(=O)(=O)O [Example 53, N,N-Diethyl-9-[(4-methoxyphenyl)methoxy]-3,5-dinitropyrazolo[3,4,5-kl]acridine-2(6H)-ethanamine, methanesulfonate (1:1)] |  |  |  |  |  |  | IC50 (L1210 cells; L1210, 72 h): 6.8 nM; MIC (Alcaligenes viscolactis): < 0.46 µg/mL; MIC (Bacillus cereus): < 0.46 µg/mL; MIC (Branhamella catarrhalis): < 0.46 µg/mL; MIC (Escherichia coli): < 0.46 µg/mL; MIC (Streptococcus pneumoniae): < 0.46 µg/mL |
| CCN(CC)CCOc1ccc2c(c1)-c1nn(CCN(CC)CC)c3ccc([N+](=O)[O-])c(c13)N2 [Example 21] | 460 nM | 4.1 µg/mL (≈ 8.79 µM) | 37 µg/mL (≈ 79.3 µM) | 12.3 µg/mL (≈ 26.4 µM) | 111 µg/mL (≈ 238 µM) | 12.3 µg/mL (≈ 26.4 µM) |  |
| CCN(CC)CCn1nc2c3c(c([N+](=O)[O-])ccc31)Nc1ccc(OC)c(Cl)c1-2 [Example 25, 10-Chloro-N,N-diethyl-9-methoxy-5-nitropyrazolo[3,4,5-kl]acridine-2(6Hethanamine, methanesulfonate, hydrate] | 70 nM | < 0.46 µg/mL | < 0.46 µg/mL | < 0.46 µg/mL | < 0.46 µg/mL | < 0.46 µg/mL |  |
| COc1ccc2c(c1)-c1nn(CCCN(C)C)c3c([N+](=O)[O-])cc([N+](=O)[O-])c(c13)N2.CS(=O)(=O)O [Example 55, N,N-Dimethyl-3,5-dinitro-9-methoxypyrazolo[3,4,5-kl]acridine-2(6H)-propanamine, methanesulfonate (1:1)] |  |  |  |  |  |  | IC50 (L1210 cells; L1210, 72 h): 220 nM; MIC (Alcaligenes viscolactis): < 0.46 µg/mL; MIC (Bacillus cereus): < 0.46 µg/mL; MIC (Branhamella catarrhalis): < 0.46 µg/mL; MIC (Escherichia coli): < 0.46 µg/mL; MIC (Streptococcus pneumoniae): < 0.46 µg/mL |
| CCN(CC)CCn1nc2c3c(c([N+](=O)[O-])cc([N+](=O)[O-])c31)Nc1ccc(O)cc1-2 [Example 49, 2-[2-(Diethylamino)ethyl]-2,6-dihydro-3,5-dinitropyrazolo[3,4,5-kl]acridin-9-ol, methanesulfonate, hemihydrate] |  |  |  |  |  |  | IC50 (L1210 cells; L1210, 72 h): 6.8 nM; MIC (Alcaligenes viscolactis): < 0.46 µg/mL; MIC (Bacillus cereus): < 0.46 µg/mL; MIC (Branhamella catarrhalis): < 0.46 µg/mL; MIC (Escherichia coli): < 0.46 µg/mL; MIC (Streptococcus pneumoniae): < 0.46 µg/mL |
| CCOc1ccc2c(c1)-c1nn(CCN(CC)CC)c3c([N+](=O)[O-])cc([N+](=O)[O-])c(c13)N2.CS(=O)(=O)O.O [Example 51, 9-Ethoxy-N,N-diethyl-3,5-dinitropyrazolo[3,4,5-kl]acridine-2(6H)-ethanamine, methanesulfonate, hydrate] |  |  |  |  |  |  | IC50 (L1210 cells; L1210, 72 h): 380 nM; MIC (Alcaligenes viscolactis): < 0.46 µg/mL; MIC (Bacillus cereus): 333 µg/mL; MIC (Branhamella catarrhalis): 333 µg/mL; MIC (Escherichia coli): > 1000 µg/mL; MIC (Streptococcus pneumoniae): 111 µg/mL |

Second part, led by results:

| IC50 (L1210 cells; 72 h, L1210 cells, three days) | MIC (Alcaligenes viscolactis; [2]) | MIC (Bacillus cereus; [2]) | MIC (Branhamella catarrhalis; [2]) | MIC (Escherichia coli; [2]) | MIC (Streptococcus pneumoniae; [2]) | Compound | also measured |
| --- | --- | --- | --- | --- | --- | --- | --- |
| 9.8 nM | 0.46 µg/mL | 333 µg/mL | 1.4 µg/mL | 3.7 µg/mL | 4.1 µg/mL | CN(C)CCCn1nc2c3c(c([N+](=O)[O-])ccc31)Nc1ccc(OC(=O)C(C)(C)C)cc1-2 [Example 48, 2-[3-(Dimethylamino)propyl]-5-nitropyrazolo[3,4,5-kl]acridin-9-ol, 2,2-dimethylpropanoate (ester), methanesulfonate (salt) (1:1)] | response vs control in vivo at 0.78 mg/kg [1]: 175%; response vs control in vivo at 1.56 mg/kg ([1]; 1.56 mg/kg): 263% |
| 590 nM | < 0.46 µg/mL | < 0.46 µg/mL | < 0.46 µg/mL | < 0.46 µg/mL | < 0.46 µg/mL | Cc1ccc2c(c1)-c1nn(CCNCCO)c3ccc([N+](=O)[O-])c(c13)N2.Cl [Example 42, 2-[[2-(9-Methyl-5-nitropyrazolo[3,4,5-kl]acridin-2(6H)-yl)ethyl]amino]ethanol, monohydrochloride] |  |
| 3.2 nM | < 0.46 µg/mL | < 0.46 µg/mL | 1.4 µg/mL | 4.1 µg/mL | < 0.46 µg/mL | CCOC(=O)Oc1ccc2c(c1)-c1nn(CCN(CC)CC)c3ccc([N+](=O)[O-])c(c13)N2 [Example 32, [2-[2-(Diethylamino)ethyl]-2,6-dihydro-5-nitropyrazolo [3,4,5-kl]acridin-9-yl]carbonic acid ethyl ester, methanesulfonate (salt) (1:1)] | response vs control in vivo at 3.12 mg/kg ([1]; 3.12 mg/kg): 208%; response vs control in vivo at 6.25 mg/kg [1]: 168% |
| 1300 nM | < 0.46 µg/mL | 4.1 µg/mL | 4.1 µg/mL | 1.4 µg/mL | < 0.46 µg/mL | CCN(CC)CCCn1nc2c3c(c([N+](=O)[O-])ccc31)Nc1ccc(OC)cc1-2 [Example 43, N,N-Diethyl-9-methoxy-5-nitropyrazolo[3,4,5-kl]acridine-2(6H)-propanamine, methanesulfonate, hydrate (1:1)] | response vs control in vivo at 6.25 mg/kg [1]: 165%; response vs control in vivo at 12.5 mg/kg [1]: 184%; response vs control in vivo at 50 mg/kg ([1]; 50 mg/kg): 202% |
| 600 nM | 1.4 µg/mL | 12.3 µg/mL | 12.3 µg/mL | 12.3 µg/mL | 1.4 µg/mL | CN(C)CCn1nc2c3c(c([N+](=O)[O-])ccc31)Nc1ccc(N(C)C)cc1-2 [Example 39, 9-(Dimethylamino)-N,N-dimethyl-5-nitropyrazolo[3,4,5-kl]acridine-2(6H)-ethanamine, methanesulfonate (1:2), dihydrate] | response vs control in vivo at 6.25 mg/kg [1]: 126%; response vs control in vivo at 12.5 mg/kg [1]: 164%; response vs control in vivo at 25 mg/kg ([1]; 25 mg/kg): 189% |
| 1.9 nM | < 0.46 µg/mL | < 0.46 µg/mL | < 0.46 µg/mL | < 0.46 µg/mL | < 0.46 µg/mL | CC(=O)Oc1ccc2c(c1)-c1nn(CCCN(C)C)c3ccc([N+](=O)[O-])c(c13)N2 [Example 47, 2-[3-(Dimethylamino)propyl]-5-nitropyrazolo[3,4,5-kl]acridin-9-ol, acetate (ester), methanesulfonate (salt) (1:1)] | response vs control in vivo at 0.39 mg/kg ([1]; 0.39 mg/kg): 144%; response vs control in vivo at 0.78 mg/kg [1]: 178% |
